Values quoted from earlier work in paper PMC11728000, “Antitumor Activity and Multi-Target Mechanism of Phenolic Schiff Bases Bearing Methanesulfonamide Fragments: Cell Cycle Analysis and a Molecular Modeling Study” (International Journal of Molecular Sciences, 2024).

Key:
[1] = test system: NCI-H23; set-up: method as in https://dtp.cancer.gov/dtpstandard/dwindex/index.jsp; settings: ref https://dtp.cancer.gov/dtpstandard/dwindex/index.jsp; cited from earlier work
[2] = test system: 59 human cancer cell lines; settings: full panel mean-graph midpoint, ref https://dtp.cancer.gov/dtpstandard/dwindex/index.jsp, cited from earlier work; for GI50: read-out: GI50 MG-MID
[3] = test system: MDA-MB-435; set-up: method as in https://dtp.cancer.gov/dtpstandard/dwindex/index.jsp; settings: ref https://dtp.cancer.gov/dtpstandard/dwindex/index.jsp; cited from earlier work
[4] = test system: Colon Cancer subpanel tumor cell lines; settings: cited from earlier work; for GI50: read-out: GI50, subpanel average, ref https://dtp.cancer.gov/dtpstandard/dwindex/index.jsp; for TGI, subpanel average: ref https://dtp.cancer.gov/dtpstandard/dwindex/index.jsp
[5] = test system: OVCAR-5; set-up: method as in https://dtp.cancer.gov/dtpstandard/dwindex/index.jsp; settings: ref https://dtp.cancer.gov/dtpstandard/dwindex/index.jsp; cited from earlier work
[6] = test system: MDA-MB-468; set-up: method as in https://dtp.cancer.gov/dtpstandard/dwindex/index.jsp; settings: ref https://dtp.cancer.gov/dtpstandard/dwindex/index.jsp; cited from earlier work
[7] = test system: 786-0; set-up: method as in https://dtp.cancer.gov/dtpstandard/dwindex/index.jsp; settings: ref https://dtp.cancer.gov/dtpstandard/dwindex/index.jsp; cited from earlier work
[8] = test system: Breast Cancer subpanel tumor cell lines; settings: cited from earlier work; for TGI, subpanel average: ref https://dtp.cancer.gov/dtpstandard/dwindex/index.jsp
[9] = test system: NCI/ADR-RES; set-up: method as in https://dtp.cancer.gov/dtpstandard/dwindex/index.jsp; settings: ref https://dtp.cancer.gov/dtpstandard/dwindex/index.jsp; cited from earlier work
[10] = test system: TK-10; set-up: method as in https://dtp.cancer.gov/dtpstandard/dwindex/index.jsp; settings: ref https://dtp.cancer.gov/dtpstandard/dwindex/index.jsp; cited from earlier work
[11] = test system: CNS Cancer subpanel tumor cell lines; settings: cited from earlier work; for GI50: read-out: GI50, subpanel average, ref https://dtp.cancer.gov/dtpstandard/dwindex/index.jsp; for TGI, subpanel average: ref https://dtp.cancer.gov/dtpstandard/dwindex/index.jsp
[12] = test system: SF-268; set-up: method as in https://dtp.cancer.gov/dtpstandard/dwindex/index.jsp; settings: ref https://dtp.cancer.gov/dtpstandard/dwindex/index.jsp; cited from earlier work
[13] = test system: UACC-257; set-up: method as in https://dtp.cancer.gov/dtpstandard/dwindex/index.jsp; settings: ref https://dtp.cancer.gov/dtpstandard/dwindex/index.jsp; cited from earlier work
[14] = test system: ACHN; set-up: method as in https://dtp.cancer.gov/dtpstandard/dwindex/index.jsp; settings: ref https://dtp.cancer.gov/dtpstandard/dwindex/index.jsp; cited from earlier work
[15] = test system: HCC-2998; set-up: method as in https://dtp.cancer.gov/dtpstandard/dwindex/index.jsp; settings: ref https://dtp.cancer.gov/dtpstandard/dwindex/index.jsp; cited from earlier work
[16] = test system: NCI-H226; set-up: method as in https://dtp.cancer.gov/dtpstandard/dwindex/index.jsp; settings: ref https://dtp.cancer.gov/dtpstandard/dwindex/index.jsp; cited from earlier work
[17] = test system: IGROV1; set-up: method as in https://dtp.cancer.gov/dtpstandard/dwindex/index.jsp; settings: ref https://dtp.cancer.gov/dtpstandard/dwindex/index.jsp; cited from earlier work
[18] = test system: SK-MEL-28; set-up: method as in https://dtp.cancer.gov/dtpstandard/dwindex/index.jsp; settings: ref https://dtp.cancer.gov/dtpstandard/dwindex/index.jsp; cited from earlier work
[19] = test system: DU-145; set-up: method as in https://dtp.cancer.gov/dtpstandard/dwindex/index.jsp; settings: ref https://dtp.cancer.gov/dtpstandard/dwindex/index.jsp; cited from earlier work
[20] = test system: U251; set-up: method as in https://dtp.cancer.gov/dtpstandard/dwindex/index.jsp; settings: ref https://dtp.cancer.gov/dtpstandard/dwindex/index.jsp; cited from earlier work
[21] = test system: NCI-H460; set-up: method as in https://dtp.cancer.gov/dtpstandard/dwindex/index.jsp; settings: ref https://dtp.cancer.gov/dtpstandard/dwindex/index.jsp; cited from earlier work
[22] = test system: MALME-3M; set-up: method as in https://dtp.cancer.gov/dtpstandard/dwindex/index.jsp; settings: ref https://dtp.cancer.gov/dtpstandard/dwindex/index.jsp; cited from earlier work
[23] = test system: Ovarian Cancer subpanel tumor cell lines; settings: cited from earlier work; for GI50: read-out: GI50, subpanel average, ref https://dtp.cancer.gov/dtpstandard/dwindex/index.jsp; for TGI, subpanel average: ref https://dtp.cancer.gov/dtpstandard/dwindex/index.jsp
[24] = test system: A549/ATCC; set-up: method as in https://dtp.cancer.gov/dtpstandard/dwindex/index.jsp; settings: ref https://dtp.cancer.gov/dtpstandard/dwindex/index.jsp; cited from earlier work
[25] = test system: CCRF-CEM; set-up: method as in https://dtp.cancer.gov/dtpstandard/dwindex/index.jsp; settings: ref https://dtp.cancer.gov/dtpstandard/dwindex/index.jsp; cited from earlier work
[26] = test system: MDA-MB-231/ATCC; set-up: method as in https://dtp.cancer.gov/dtpstandard/dwindex/index.jsp; settings: ref https://dtp.cancer.gov/dtpstandard/dwindex/index.jsp; cited from earlier work
[27] = test system: HT29; set-up: method as in https://dtp.cancer.gov/dtpstandard/dwindex/index.jsp; settings: ref https://dtp.cancer.gov/dtpstandard/dwindex/index.jsp; cited from earlier work
[28] = test system: SN12C; set-up: method as in https://dtp.cancer.gov/dtpstandard/dwindex/index.jsp; settings: ref https://dtp.cancer.gov/dtpstandard/dwindex/index.jsp; cited from earlier work
[29] = test system: KM12; set-up: method as in https://dtp.cancer.gov/dtpstandard/dwindex/index.jsp; settings: ref https://dtp.cancer.gov/dtpstandard/dwindex/index.jsp; cited from earlier work
[30] = test system: UO-31; set-up: method as in https://dtp.cancer.gov/dtpstandard/dwindex/index.jsp; settings: ref https://dtp.cancer.gov/dtpstandard/dwindex/index.jsp; cited from earlier work
[31] = test system: Leukemia subpanel tumor cell lines; settings: cited from earlier work; for GI50: read-out: GI50, subpanel average, ref https://dtp.cancer.gov/dtpstandard/dwindex/index.jsp; for TGI, subpanel average: ref https://dtp.cancer.gov/dtpstandard/dwindex/index.jsp
[32] = test system: LOX IMVI; set-up: method as in https://dtp.cancer.gov/dtpstandard/dwindex/index.jsp; settings: ref https://dtp.cancer.gov/dtpstandard/dwindex/index.jsp; cited from earlier work
[33] = test system: CAKI-1; set-up: method as in https://dtp.cancer.gov/dtpstandard/dwindex/index.jsp; settings: ref https://dtp.cancer.gov/dtpstandard/dwindex/index.jsp; cited from earlier work
[34] = test system: A498; set-up: method as in https://dtp.cancer.gov/dtpstandard/dwindex/index.jsp; settings: ref https://dtp.cancer.gov/dtpstandard/dwindex/index.jsp; cited from earlier work
[35] = test system: MCF-7; set-up: method as in https://dtp.cancer.gov/dtpstandard/dwindex/index.jsp; settings: ref https://dtp.cancer.gov/dtpstandard/dwindex/index.jsp; cited from earlier work
[36] = test system: SNB-75; set-up: method as in https://dtp.cancer.gov/dtpstandard/dwindex/index.jsp; settings: ref https://dtp.cancer.gov/dtpstandard/dwindex/index.jsp; cited from earlier work
[37] = test system: OVCAR-8; set-up: method as in https://dtp.cancer.gov/dtpstandard/dwindex/index.jsp; settings: ref https://dtp.cancer.gov/dtpstandard/dwindex/index.jsp; cited from earlier work
[38] = test system: EKVX; set-up: method as in https://dtp.cancer.gov/dtpstandard/dwindex/index.jsp; settings: ref https://dtp.cancer.gov/dtpstandard/dwindex/index.jsp; cited from earlier work
[39] = read-out: LC50, subpanel average, ref https://dtp.cancer.gov/dtpstandard/dwindex/index.jsp

SMILES: COc1cc2ncnc(Nc3ccc(F)c(Cl)c3)c2cc1OCCCN1CCOCC1 [Gefitinib, gefitinib]
- GI50 [1]: 2510 nM
- TGI MG-MID [2]: 14.3 µM
- GI50 [2]: 2100 nM
- GI50 [3]: 3.16 µM
- GI50 [4]: 5.23 µM
- TGI, subpanel average [4]: 18.47 µM
- GI50 [5]: 3.98 µM
- GI50 [6]: 12.6 nM
- GI50 [7]: 3.16 µM
- GI50 ([8]; read-out: GI50, subpanel average, ref https://dtp.cancer.gov/dtpstandard/dwindex/index.jsp): 4.67 µM
- TGI, subpanel average [8]: 18.62 µM
- GI50 [9]: 1260 nM
- GI50 [10]: 794 nM
- GI50 [11]: 5.64 µM
- TGI, subpanel average [11]: 19.62 µM
- GI50 [12]: 2510 nM
- GI50 [13]: 2510 nM
- GI50 [14]: 158 nM
- GI50 [15]: 2510 nM
- GI50 [16]: 3980 nM
- GI50 [17]: 3160 nM
- GI50 [18]: 3160 nM
- GI50 [19]: 1580 nM
- GI50 [20]: 3160 nM
- GI50 [21]: 3160 nM
- GI50 [22]: 3980 nM
- GI50 [23]: 3050 nM
- TGI, subpanel average [23]: 33.29 µM
- GI50 [24]: 2510 nM
- GI50 [25]: 398 nM
- GI50 [26]: 3980 nM
- GI50 [27]: 3980 nM
- GI50 [28]: 1260 nM
- GI50 [29]: 10 µM
- GI50 [30]: 1580 nM
- GI50 [31]: 2560 nM
- TGI, subpanel average [31]: 12.07 µM
- GI50 [32]: 3.16 µM

SMILES: CNC(=O)c1cc(Oc2ccc(NC(=O)Nc3ccc(Cl)c(C(F)(F)F)c3)cc2)ccn1 [Sorafenib, sorafenib]
- GI50 [1]: 1990 nM
- GI50 [33]: 3.16 µM
- GI50 [34]: 2510 nM
- TGI MG-MID [2]: 9.11 µM
- GI50 [2]: 2330 nM
- CC50 ([2]; read-out: LC50 MG-MID): 43.1 µM
- GI50 [4]: 2.19 µM
- CC50 [4, 39]: 38.1 µM
- TGI, subpanel average [4]: 7.94 µM
- GI50 [5]: 3.16 µM
- GI50 [35]: 2510 nM
- GI50 [6]: 1990 nM
- GI50 [7]: 3.16 µM
- CC50 [8, 39]: 57.3 µM
- TGI, subpanel average [8]: 9.35 µM
- GI50 [9]: 2510 nM
- GI50 [10]: 3980 nM
- GI50 [11]: 2.33 µM
- CC50 [11, 39]: 27.8 µM
- TGI, subpanel average [11]: 7.64 µM
- GI50 [12]: 2510 nM
- GI50 [13]: 1990 nM
- GI50 [14]: 2510 nM
- GI50 [15]: 3160 nM
- GI50 [16]: 1990 nM
- GI50 [17]: 2510 nM
- GI50 [18]: 2510 nM
- GI50 [19]: 3160 nM
- GI50 [20]: 1990 nM
- GI50 [21]: 2510 nM
- GI50 [22]: 1990 nM
- GI50 [36]: 3.16 µM
- GI50 [23]: 2890 nM
- CC50 [23, 39]: 71.3 µM
- TGI, subpanel average [23]: 14.43 µM
- GI50 [24]: 3160 nM
- GI50 [25]: 1990 nM
- GI50 [26]: 1260 nM
- GI50 [27]: 1990 nM
- GI50 [37]: 3.16 µM
- GI50 [28]: 2510 nM
- GI50 [30]: 2510 nM
- GI50 [38]: 2510 nM
- GI50 [31]: 1910 nM
- CC50 [31, 39]: > 100 µM
- TGI, subpanel average [31]: 42.12 µM
